Measured values as given in patent US20100184703A1, “USE OF PEPTIDE DERIVATIVES FOR TREATING PATHOLOGIES RESULTING FROM ISCHEMIA” (CHIESI FARMACEUTICI S.p.A., priority 2007, published 2010).
“Also recorded” adds a separate entry of the source. Peptide text beside a SMILES is read from it. * marks the point of attachment. X1 = COC(=O)CC(N*)C(=O)COc1c(F)cccc1F; Quinaldoyl = O=C(c1ccc2ccccc2n1)*

Key:
[1] = test system: ANF, BNP, fibronectin, β-MHC, TNFR1, TNFR2, TNFα, caspase-2 mRNA; test: Quantitative RT-PCR of heart failure, fibrosis, hypertrophy and TNFα signaling markers after ischemia/reperfusion; format: in vivo, rat; conditions: IR model; for mRNA expression level of TNFα / mRNA expression level of TNFα receptor 1 (TNFR1) / mRNA expression level of TNFα receptor 2 (TNFR2) / mRNA expression level of caspase-2: increase in vehicle-injected animals; for mRNA expression level of β-Myosin Heavy Chain (β-MHC): marker for hypertrophy development; for mRNA expression level of fibronectin: marker of fibrosis development; for mRNA expression level of Atrial Natriuretic Factor (ANF) / mRNA expression level of brain natriuretic peptide (BNP): marker of heart failure
Description: In a second series of experiments, quantitative RT-PCR was performed to evaluate the level of expression of 2 markers of heart failure, Atrial Natriuretic Factor (ANF) and Brain Natriuretic Factor (BNP) as well as a marker of myocardial fibrosis, fibronectine, and myocardial hypertrophy, βMHC. […] B. mRNA expression levels of fibronectin a marker of fibrosis development, and β-Myosin Heavy Chain (β-MHC) a marker for hypertrophy development

[2] = test system: caspase-3; test: Dosage of caspase-3 activity in myocardial tissue, chronic ischemia (PMI) model; format: in vivo, rat; conditions: PMI 72 h
Description: (§1) The analyses were performed on 2 myocardial ischemia models: a chronic ischemia model and an acute ischemia model, followed by myocardial reperfusion after 30 min of occlusion.
(§2) Said models were realized with Wistar male rats (180-220 g). The coronary artery was ligatured according to Pfeffer et al protocol.
(§3) Briefly, the rats were anaesthetized by intraperitoneal administration of a mixture of Ketamine (150 mg/kg) and Xylazine (15 mg/kg), then intubated and mechanically ventilated. The animals were submitted to a left and median thoracotomy. An occlusion of the coronary artery was done with a silk wire (size: 7.0) at the more proximal point and below the auricle.
In the case of chronic ischemia, the ligature was maintained and the rib cage of the animal reclosed (PMI model for post myocardial infarction).
The animals were sacrificed by a pentobarbital lethal injection. […]
(§4) The supernatant was taken and divided into 2 tubes for of each sample. The tubes were placed at −80° C. before performing the spectrophotometric proteic dosage (BCA: cupper (II) sulphate+solution A of bicinchronic acid, DO measured at 550 nm) in transparent, with flat bottom, 96-well plates. […]

[3] = molecular target: T1, caspase-2 (Rattus norvegicus, UniProt P55215); test: Dosage of caspase-2 activity in myocardial tissue, reperfusion ischemia (IR) model; format: in vivo; conditions: administered 15 min before the reperfusion, VGZI and septum
T1 construct: Each fragment of tissue was rapidly frozen in liquid nitrogen and kept at −80° C; from tissue; host or cells: rat myocardium (left ventricle, right ventricle, septum, apex) extracts
T1 sequence (P55215 170-325 limits assumed): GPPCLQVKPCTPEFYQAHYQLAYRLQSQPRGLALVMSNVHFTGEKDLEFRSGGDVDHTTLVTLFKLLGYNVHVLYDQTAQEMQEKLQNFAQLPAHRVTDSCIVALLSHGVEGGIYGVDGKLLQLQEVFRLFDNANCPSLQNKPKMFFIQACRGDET
T1 sequence (P55215 348-452 limits assumed): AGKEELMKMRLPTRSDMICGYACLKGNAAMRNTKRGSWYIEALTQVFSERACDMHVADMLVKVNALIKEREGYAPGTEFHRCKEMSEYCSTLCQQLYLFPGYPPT

[4] = test system: TNFα, IL1β, IL10; test: Multiplex assay (Luminex) of circulating cytokines after ischemia-reperfusion; format: in vivo, rat; conditions: IR model; for circulating level of TNFα: injected 15 min prior to the reperfusion, compared to sham-operated; for IL-1β elevation / IL-10 elevation: within the first 24 hours of reperfusion
Description: Another series of experiments was conducted in the rat model of ischemia-reperfusion. Ischemia and reperfusion is well known to trigger an acute inflammatory process in animal model as well as in human. In our rat model, at the euthanasia, blood sample were collected in order to measure the inflammatory response on sera. This was performed by multiplex assay (Luminex technology). Three parameters were simultaneously measured at various time after myocardial reperfusion the pro inflammatory cytokines TNFα and IL1β as well as the anti-inflammatory cytokine IL10. […] B-C. […] In summary, caspase 2 inhibition prevents the acute inflammatory response occurring during the first 24 hours after myocardial reperfusion. *p<0.05 compared to sham-operated animals, n≧5 animals.

[5] = molecular target: T2, caspase-3 (Rattus norvegicus, UniProt P55213); test: Dosage of caspase-3 activity in myocardial tissue, reperfusion ischemia (IR) model; format: in vivo; conditions: administered 15 min before the reperfusion, VGZI, VD, Apex and VGZNI
T2 construct: from tissue; host or cells: rat myocardium (left ventricle, right ventricle, septum, apex) extracts
T2 sequence (P55213 29-175 limits assumed): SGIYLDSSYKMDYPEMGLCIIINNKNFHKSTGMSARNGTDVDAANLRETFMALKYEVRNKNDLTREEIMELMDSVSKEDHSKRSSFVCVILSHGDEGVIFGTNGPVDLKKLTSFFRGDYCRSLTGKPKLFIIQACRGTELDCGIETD
T2 sequence (P55213 176-277 limits assumed): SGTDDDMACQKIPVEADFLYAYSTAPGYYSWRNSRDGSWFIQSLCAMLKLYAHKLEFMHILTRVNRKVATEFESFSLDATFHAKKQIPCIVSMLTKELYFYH
Description: as §1, §2, §3
In the case of reperfusion ischemia model (IR model), the silk wire was untied after 30 min of occlusion. The artery was then cleared and the myocardial territory reperfused. The control animals (sham operated) were submitted to the same surgery protocol as the above animals, but the silk wire was passed under the coronary without making any ligature.
The animals were sacrificed by a pentobarbital lethal injection. The heart was excised and perfused about 5 min by Langerdorf reverse way using a calcium-free washing solution (in mM: NaCl 117 mM, KCl 5.7, NaHCO3 4.4, KH2PO4 1.5, MgCl2 1.7, HEPES 21, glucose 11, taurine 20, pH 7.2 adjusted with NaOH). The heart was then placed into a dissection tank and the different myocardial territories were taken (i.e. right ventricle (VD), septum, Apex, left ventricle (selectively in infarcted area (VGZI) and non-infarcted area (VGZNI)). Each fragment of tissue was rapidly frozen in liquid nitrogen and kept at −80° C.
Each tissue was then thawed and about 1-2 mm^3 was taken. […]
as §4

## COC(=O)CC(NC(=O)[C@H](C)NC(=O)[C@@H](NC(=O)[C@H](CC(=O)OC)NC(=O)[C@@H](NC(=O)c1ccc2ccccc2n1)C(C)C)C(C)C)C(=O)COc1c(F)cccc1F (stereo partly drawn) [D1, (3S,6S,9S,12S)-methyl 15-(2-(2,6-difluorophenoxy)acetyl)-3,9-diisopropyl-6-(2-methoxy-2-oxoethyl)-12-methyl-1,4,7,10,13-pentaoxo-1-(quinolin-2-yl)-2,5,8,11,14-pentaazaheptadecan-17-oate] (Quinaldoyl-VD(OMe)VA-X1)
[1]
  mRNA expression level of TNFα: prevented
  mRNA expression level of TNFα receptor 1 (TNFR1): prevented
  mRNA expression level of TNFα receptor 2 (TNFR2): prevented
  mRNA expression level of caspase-2: prevented
  mRNA expression level of β-Myosin Heavy Chain (β-MHC): blocked
  mRNA expression level of fibronectin: blocked
  mRNA expression level of Atrial Natriuretic Factor (ANF): comparable to sham-operated animals
  mRNA expression level of brain natriuretic peptide (BNP): comparable to sham-operated animals
[2]; pre-treated rats, 0.01 or 1 mg/kg
  caspase-3 activity: inhibition of the caspase-3 activity
[2]; right ventricular (RV)
  caspase-3 basal activity: weak inhibition
[3]
  caspase-2 activity: normalization of the activity; also recorded: specifically inhibits
[4]
  circulating level of TNFα: not significantly different
  IL-1β elevation: prevented
  IL-10 elevation: prevented
[5]
  caspase-3 activity: normalization of the activity; also recorded: prevents the further activation

## CC(C)[C@H](NC(=O)c1ccc2ccccc2n1)C(=O)N[C@@H](CC(=O)O)C(=O)COc1c(F)cccc1F [Q-VD-OPH]
[1]
  mRNA expression level of TNFα: prevented
  mRNA expression level of TNFα receptor 1 (TNFR1): prevented
  mRNA expression level of TNFα receptor 2 (TNFR2): prevented
  mRNA expression level of caspase-2: prevented
  mRNA expression level of β-Myosin Heavy Chain (β-MHC): blocked
  mRNA expression level of fibronectin: blocked
  mRNA expression level of Atrial Natriuretic Factor (ANF): comparable to sham-operated animals
  mRNA expression level of brain natriuretic peptide (BNP): comparable to sham-operated animals
[3]
  caspase-2 activity: inhibits the activity of both caspases
[3]; listed as QVDOPH
  caspase-2 activity: normalization of the activity
[4]
  circulating level of TNFα: not significantly different
  IL-1β elevation: prevented
  IL-10 elevation: prevented
[5]
  caspase-3 activity: inhibits the activity of both caspases
[5]; listed as QVDOPH
  caspase-3 activity: normalization of the activity
